test system: Mouse B16 melanoma cells; test: Melanin production inhibition test; assay type: cell-based; conditions: 72 h; mouse B16 melanoma cells, three days after addition; minimum non-cytotoxic final concentration at which ratio of melanin amount was 80% or less; read-out: Inhibitory effect on melanin production
Experimental: A test for melanin production inhibition by the compounds of the formula (1) was conducted. The test method is as follows.
Melanin Production Inhibition Test
(1) Inoculation of Cells and Addition of Test Substances
Mouse B16 melanoma cells were inoculated in a six well plate at 100,000 cells/well. The next day, test substance solutions (solvent: DMSO) were added.
(2) Cell Proliferation Test
Three days after the addition of the test substance solution, the medium was removed by aspiration. Then 1 ml of EMEM medium containing 10% Alamar Blue solution was added, and a reaction was allowed to proceed at 37° C. After 30 minutes, 100 μL of the reaction mixture was transferred to a 96 well plate and fluorescence was measured at an excitation wavelength of 544 nm and a measurement wavelength of 590 nm. Using the value thus measured as a relative value of cell count, a ratio of the cell count (% cell count) of the test substance-added group to the test substance-absent group (group in which only the solvent was added) was calculated. The higher the % cell count, the lower the cytotoxicity. It was determined that a compound having the % cell count of 80% or more was non-cytotoxic, and that a compound having the % cell count of less than 80% was cytotoxic.
(3) Quantification of Melanin
The cells after the cell proliferation test were washed with PBS three times, and then lysed by addition of 200 μL of 1M NaOH to measure an absorbance at 475 nm. Using the value thus measured as a: value of the melanin amount, a ratio of the melanin amount (%) of the test substance-added group to the test substance-absent group (group in which only the solvent was added) was calculated. The lower the ratio of the melanin amount, the higher the melanin production-inhibitory effect. […] The inhibitory effect on melanin production was evaluated according to the following criteria.
⊚: the minimum concentration for inhibition of melanin production was 1 ppm or less.
◯: the minimum concentration for inhibition of melanin production was more than 1 ppm and 10 ppm or less.

Compound | minimal effective concentration [µg/mL]
CNc1cc(C)nc(-n2nc(C)cc2C)n1 [Compound 7] | ≤ 1
Cc1cc(C)nc(-n2ccc(C)n2)n1 [Compound 18] | ≤ 1
Cc1ccnc(-n2nc(C)cc2C)c1 [Compound 40, 1-(4-methylpyridin-2-yl)-3,5-dimethylpyrazole] | 1 to 10
Cc1cc(C)nc(-n2nccc2C)n1 [Compound 17] | ≤ 1
Cc1cc(C)nc(-n2nc(C)cc2N)n1 [Compound 1] | ≤ 1
Cc1cc(S)nc(-n2nc(C)cc2C)n1 [Compound 6] | ≤ 1
Cc1cn(-c2nc(C)cc(C)n2)cn1 [Compound 42] | ≤ 1
Cc1cc(N(C)C)nc(-n2nc(C)cc2C)n1 [Compound 14] | ≤ 1
Cc1cc(C)nc(-n2cccn2)n1 [Compound 12, 2-(pyrazol-1-yl)-4,6-dimethylpyrimidine] | 1 to 10
Cc1cc(C)n(-c2ccc(C)c(C)c2)n1 [Compound 34] | ≤ 1
Cc1cc(C)n(-c2ncccn2)n1 [Compound 4, 1-(pyrimidin-2-yl)-3,5-dimethylpyrazole] | ≤ 1
Cc1ccnc(-n2nc(C)cc2C)n1 [Compound 22, 1-(4-methylpyrimidin-2-yl)-3,5-dimethylpyrazole] | ≤ 1
COc1cc(OC)nc(-n2nc(C)cc2C)n1 [Compound 13] | ≤ 1
Cc1cc(C)nc(-n2ccnc2C)n1 [Compound 41] | ≤ 1
Cc1cc(C)nc(-n2ncc3c2/C(=C/c2ccc(Cl)cc2)CC3)n1 [Compound 30] | ≤ 1
Cc1cc(C)nc(-n2nc(C)cc2O)n1 [Compound 11] | 1 to 10
Cc1cccc(-n2nc(C)cc2C)c1 [Compound 36] | ≤ 1
Cc1cc(C)nc(N2CC(C)CC(C)C2)n1 (centres unmarked) [Compound 45, N-(4,6-dimethylpyrimidin-2-yl)-3,5-dimethylpiperidine] | 1 to 10
Cc1cc(N2CCOCC2)nc(-n2nc(C)c(C)c2C)n1 [Compound 20] | ≤ 1
CCc1c(C)nn(-c2nc(C)cc(C)n2)c1O [Compound 8] | ≤ 1
Cc1cnn(-c2nc(C)cc(C)n2)c1 [Compound 23] | ≤ 1
Cc1cc(N2CCOCC2)nc(-n2nc(C)cc2C)n1 [Compound 2] | ≤ 1
CCc1cnc(-n2nc(C)cc2C)nc1 [Compound 21, 1-(5-ethylpyrimidin-2-yl)-3,5-dimethylpyrazole] | ≤ 1
Cc1cc(C)n(-c2ccccc2)n1 [Compound 33, 1-phenyl-3,5-dimethylpyrazole] | 1 to 10
Cc1cc(N)n(-c2ncccn2)n1 [Compound 3] | 1 to 10
Cc1cc(C)cc(-n2nc(C)cc2C)c1 [Compound 35] | ≤ 1

same assay, conditions: minimum concentration at which an inhibitory effect on melanin production was significantly exhibited in melanoma B16 cells

Compound | Minimum concentration (%)
CNc1cc(C)nc(-n2nc(C)cc2C)n1 [Compound 7] | 3 × 10^−6%
Cc1cc(N(C)C)nc(-n2nc(C)cc2C)n1 [Compound 14] | 3 × 10^−6%
OC[C@H]1O[C@@H](Oc2ccc(O)cc2)[C@H](O)[C@@H](O)[C@@H]1O [Arbutin, 4-hydroxyphenyl-β-D-glucopyranoside, reference compound] | 5 × 10^−4%
